From patent US20060035820A1, “New derivatives of echinocandine, their preparation process and their use as antifungals” (AVENTIS PHARMA S.A., priority 1999, published 2006)

Target: T1, Glucan Synthase of Candida albicans (Candida albicans, UniProt O13428)
T1 construct: endogenous in cells; host or cells: Candida albicans membrane preparation (method of Tang et al. 1991)
Test: Inhibition of the Glucan Synthase of Candida albicans
Format: biochemical
Conditions: Candida albicans membranes, 14C-UDP glucose, 25° C. for 1 hour
Method: A—Inhibition of the Glucan Synthase of Candida albicans.
Candida albicans membranes were purified according to the process described by Tang et al Antimicrob. Agents Chemother 35, 99-103, 1991. 22.5 μg of membrane proteins are incubated in a mixture of 2 Mm of 14C-UDP glucose (specific activity=0.34 mCi./mmol, 50 μg of α-amylase, 1 Mm of dithiotreitol (DTT), 1 Mm EDTA, 100 Mm NaF, 7 μM of GTP-γ-S, 1M of sucrose and 50 Mm of Tris-HCL (pH 7.8) in a volume of 100 μl. The medium is incubated at 25° C. for 1 hour and the reaction is terminated by adding TCA at a final concentration of 5%. The reaction mixture is transferred onto a pre-humidified glass fibre filter. The filter is washed, dried and its radioactivity is counted. Mulundocandine is used as a positive control. Control of the vehicle is carried out with the same quantity of 1% DMSO.

T1 sequence (O13428 1-1897): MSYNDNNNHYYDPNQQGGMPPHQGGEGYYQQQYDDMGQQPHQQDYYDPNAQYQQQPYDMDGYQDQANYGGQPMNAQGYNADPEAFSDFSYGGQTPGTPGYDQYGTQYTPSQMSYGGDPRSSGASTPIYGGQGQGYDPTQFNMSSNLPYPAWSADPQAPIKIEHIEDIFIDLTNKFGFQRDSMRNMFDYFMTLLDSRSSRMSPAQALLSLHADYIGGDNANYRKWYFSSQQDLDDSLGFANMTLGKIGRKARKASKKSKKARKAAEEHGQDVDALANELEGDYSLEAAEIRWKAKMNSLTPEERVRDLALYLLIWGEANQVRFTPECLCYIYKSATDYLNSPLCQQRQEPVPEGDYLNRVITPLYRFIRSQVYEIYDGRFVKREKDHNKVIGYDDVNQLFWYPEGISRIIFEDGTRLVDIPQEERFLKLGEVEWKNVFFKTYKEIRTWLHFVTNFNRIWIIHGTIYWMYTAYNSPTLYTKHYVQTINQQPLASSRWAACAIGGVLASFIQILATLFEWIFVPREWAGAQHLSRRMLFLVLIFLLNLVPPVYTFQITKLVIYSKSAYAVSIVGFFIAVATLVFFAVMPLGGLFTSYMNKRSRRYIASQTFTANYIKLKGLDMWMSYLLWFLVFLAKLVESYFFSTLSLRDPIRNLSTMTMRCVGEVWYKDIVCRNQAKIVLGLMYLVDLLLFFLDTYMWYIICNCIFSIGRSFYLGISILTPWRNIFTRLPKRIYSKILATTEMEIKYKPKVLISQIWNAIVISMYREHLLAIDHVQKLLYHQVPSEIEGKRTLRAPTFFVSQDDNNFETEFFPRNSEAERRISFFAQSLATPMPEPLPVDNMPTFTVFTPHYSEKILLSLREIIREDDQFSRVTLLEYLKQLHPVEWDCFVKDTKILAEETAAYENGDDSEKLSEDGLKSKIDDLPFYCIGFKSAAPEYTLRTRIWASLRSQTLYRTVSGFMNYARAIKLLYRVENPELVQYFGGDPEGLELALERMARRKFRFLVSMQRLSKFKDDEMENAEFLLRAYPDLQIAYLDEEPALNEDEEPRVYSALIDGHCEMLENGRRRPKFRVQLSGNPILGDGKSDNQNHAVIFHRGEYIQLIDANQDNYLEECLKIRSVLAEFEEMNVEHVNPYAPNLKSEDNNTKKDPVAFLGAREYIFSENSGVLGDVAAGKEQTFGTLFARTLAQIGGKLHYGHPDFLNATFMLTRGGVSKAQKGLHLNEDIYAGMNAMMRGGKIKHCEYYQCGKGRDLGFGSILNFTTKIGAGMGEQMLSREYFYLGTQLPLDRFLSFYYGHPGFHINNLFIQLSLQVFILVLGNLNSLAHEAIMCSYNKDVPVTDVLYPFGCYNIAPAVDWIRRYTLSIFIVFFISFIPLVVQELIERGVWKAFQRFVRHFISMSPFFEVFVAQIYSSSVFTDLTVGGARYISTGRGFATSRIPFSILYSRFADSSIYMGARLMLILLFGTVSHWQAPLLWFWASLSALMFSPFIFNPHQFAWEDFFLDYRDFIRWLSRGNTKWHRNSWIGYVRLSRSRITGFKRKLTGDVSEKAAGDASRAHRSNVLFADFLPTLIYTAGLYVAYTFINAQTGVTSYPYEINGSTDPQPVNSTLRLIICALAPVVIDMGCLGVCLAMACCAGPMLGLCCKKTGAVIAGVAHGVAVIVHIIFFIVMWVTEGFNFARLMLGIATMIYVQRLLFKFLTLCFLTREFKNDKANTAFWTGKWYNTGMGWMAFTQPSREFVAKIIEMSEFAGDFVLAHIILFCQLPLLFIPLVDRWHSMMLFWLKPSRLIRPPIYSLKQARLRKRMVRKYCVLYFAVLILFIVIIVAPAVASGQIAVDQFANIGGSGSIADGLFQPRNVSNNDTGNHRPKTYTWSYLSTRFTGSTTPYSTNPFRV
T1 sequence (O42825 1-195 partner limits assumed): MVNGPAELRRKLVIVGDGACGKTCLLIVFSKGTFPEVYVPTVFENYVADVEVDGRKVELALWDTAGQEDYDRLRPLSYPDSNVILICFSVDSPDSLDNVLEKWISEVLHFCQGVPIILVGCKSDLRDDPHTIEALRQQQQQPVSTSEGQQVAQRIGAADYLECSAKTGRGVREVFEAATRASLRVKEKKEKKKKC

## Trans 1-[4-[(2-aminocyclo-hexyl)-amino]-N2-[[4″-(pentyloxy)[1,1′:4′,1″-terphenyl]-4-yl)]-carbonyl]-L-ornithine]-4-[4-(4-hydroxyphenyl)-L-threonine]-5-L-serine-echinocandin B trifluoroacetate (isomer A). [Example 3 isomer A]
  Inhibition of the glucan synthase of Candida albicans (activity in words): good activity
